Drawing on ChEMBL document CHEMBL1201862, “PubChem BioAssay data set” (2004), this text covers IC50 and EC50 for two molecules.

Active and inactive are the calls of the source. Where only a bound is given, the exact number is not on record here.

Test [1] addresses T1, Calpain-2 catalytic subunit (Sus scrofa, UniProt P43367).
T1 sequence (P43367 whole entry): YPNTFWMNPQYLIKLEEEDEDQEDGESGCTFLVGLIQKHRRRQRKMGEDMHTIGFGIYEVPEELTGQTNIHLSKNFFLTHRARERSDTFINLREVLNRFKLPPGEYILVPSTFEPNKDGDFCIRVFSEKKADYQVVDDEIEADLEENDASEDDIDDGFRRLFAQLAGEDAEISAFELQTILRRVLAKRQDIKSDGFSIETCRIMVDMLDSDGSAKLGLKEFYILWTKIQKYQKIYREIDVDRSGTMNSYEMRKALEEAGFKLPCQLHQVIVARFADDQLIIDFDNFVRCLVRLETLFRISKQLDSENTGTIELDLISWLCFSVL
Description: pig calpain II inhibitor potency, dose response, biochemical, fluorogenic peptide substrate (AID 1420). Format: functional.

Test [2] has as its target T2, Small ubiquitin-related modifier 2 (Homo sapiens, UniProt P61956). Description: inhibitors of SUMO2 protein-protein interaction, dose response, selectivity assay for SUMO1 interaction inhibitor project, biochemical, FRET, human SUMO2, uHTS hits (AID 624384). Format: functional. Particulars: read-out: IC50_Mean.
The target in test [3] is T3, Small ubiquitin-related modifier 1 (Homo sapiens, UniProt P63165). Description: inhibitors of SUMO1 partner interactions, dose response, biochemical, FRET (AID 624383). Particulars: read-out: IC50_Mean. Format: functional.
T3 sequence (P63165 whole entry): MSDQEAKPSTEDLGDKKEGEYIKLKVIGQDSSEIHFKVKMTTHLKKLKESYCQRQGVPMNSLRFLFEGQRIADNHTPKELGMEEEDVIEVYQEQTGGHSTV
Test [4] has as its system Streptococcus sp. 'group A'. Description: growth inhibition of control SK(-) GAS strain, dose response, counter-screen for streptokinase expression inhibitor project, luminescence, kanamycin, BacTiterGlo, confirmation (AID 1900). Format: functional, organism-based. In general terms: A counterscreen serves to expose hits that act by an unwanted route or on another target.

Test [5] deals with T4, Dual specificity protein phosphatase 3 (Homo sapiens, UniProt P51452). Description: VHR1 phosphatase inhibitors, biochemical (AID 1878).
T4 sequence (P51452 whole entry): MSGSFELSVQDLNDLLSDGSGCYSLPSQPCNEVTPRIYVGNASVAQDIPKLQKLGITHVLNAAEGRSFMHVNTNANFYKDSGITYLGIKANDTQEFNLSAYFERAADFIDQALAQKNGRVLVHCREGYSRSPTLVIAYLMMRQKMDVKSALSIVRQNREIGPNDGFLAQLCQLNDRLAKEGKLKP
For test [6], the target named is T2, Small ubiquitin-related modifier 2. Description: SUMO2–SIM peptide binding inhibitors, dose response, selectivity assay for SUMO1 interaction inhibitor project, biochemical, fluorescence polarization, uHTS hits (AID 624385). As to conditions: read-out: IC50_Mean. Format: functional.
The next test relates to Streptococcus. Description: Group A Streptococcus viability loss, dose response, counter-screen for streptokinase expression inhibitor project, luminescence, BacTiterGlo (AID 1915).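 Further: potency for reduction of bacterial viability or growth.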 Format: functional, organism-based.
In a further test the target is T5, Streptokinase A (Streptococcus pyogenes serotype M1, UniProt P10520).
T5 sequence (P10520 whole entry): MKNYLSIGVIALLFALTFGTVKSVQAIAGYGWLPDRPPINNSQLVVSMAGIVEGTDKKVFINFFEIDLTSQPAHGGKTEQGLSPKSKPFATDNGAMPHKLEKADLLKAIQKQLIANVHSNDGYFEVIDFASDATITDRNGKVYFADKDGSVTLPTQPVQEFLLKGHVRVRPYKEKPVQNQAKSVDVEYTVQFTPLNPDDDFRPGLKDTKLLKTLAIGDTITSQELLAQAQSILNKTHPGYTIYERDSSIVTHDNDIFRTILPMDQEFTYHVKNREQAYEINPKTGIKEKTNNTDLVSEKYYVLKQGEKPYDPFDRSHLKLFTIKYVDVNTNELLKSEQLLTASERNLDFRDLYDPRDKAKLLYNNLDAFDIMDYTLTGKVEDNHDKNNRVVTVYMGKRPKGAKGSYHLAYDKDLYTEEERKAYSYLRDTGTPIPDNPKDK
Description: S. pyogenes streptokinase expression inhibitors, potency, dose response, plasminogen activation absorbance, OD405 (AID 1914).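 Further: secreted streptokinase activity via plasminogen activation per viability signal from cell pellet.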 Format: functional, Streptococcus pyogenes M1 GAS.

For test [7], the target named is T4, Dual specificity protein phosphatase 3. Description: VHR1 phosphatase inhibitors, primary screen, biochemical, absorbance, uHTS (AID 1654).
Test [8] concerns the target T6, Dual specificity protein phosphatase 6 (Rattus norvegicus, UniProt Q64346).
T6 sequence (Q64346 whole entry): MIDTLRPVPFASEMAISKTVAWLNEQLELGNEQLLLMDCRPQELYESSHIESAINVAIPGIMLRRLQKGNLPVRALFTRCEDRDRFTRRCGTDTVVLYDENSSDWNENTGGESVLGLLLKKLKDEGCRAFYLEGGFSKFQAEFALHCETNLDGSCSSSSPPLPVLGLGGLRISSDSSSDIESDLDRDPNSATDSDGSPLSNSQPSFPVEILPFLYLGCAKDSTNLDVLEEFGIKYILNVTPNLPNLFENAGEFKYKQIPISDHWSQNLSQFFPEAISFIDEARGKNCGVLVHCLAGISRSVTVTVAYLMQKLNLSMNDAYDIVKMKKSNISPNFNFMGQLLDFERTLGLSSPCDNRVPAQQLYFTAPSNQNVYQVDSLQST
Description: MKP-3 phosphatase inhibitors, primary screen, biochemical, rat enzyme, in vitro (AID 425).

Test [9] addresses T3, Small ubiquitin-related modifier 1. Description: inhibitors of SUMO1 peptide binding, dose response, biochemical, fluorescence polarization, uHTS hits (AID 624382). As to conditions: read-out: IC50_Mean. Format: functional. In general terms: In fluorescence polarisation assays a small probe gives low polarisation when free and higher when bound to something large.
The target in another test is Genome polyprotein (dengue virus type 2, UniProt P29990). Description: Dengue-2 NS5 methyltransferase inhibitors, primary screen, biochemical, confirmation dose response (AID 588689). Format: functional.
Sequence of Genome polyprotein (P29990 2492-3391 limits assumed): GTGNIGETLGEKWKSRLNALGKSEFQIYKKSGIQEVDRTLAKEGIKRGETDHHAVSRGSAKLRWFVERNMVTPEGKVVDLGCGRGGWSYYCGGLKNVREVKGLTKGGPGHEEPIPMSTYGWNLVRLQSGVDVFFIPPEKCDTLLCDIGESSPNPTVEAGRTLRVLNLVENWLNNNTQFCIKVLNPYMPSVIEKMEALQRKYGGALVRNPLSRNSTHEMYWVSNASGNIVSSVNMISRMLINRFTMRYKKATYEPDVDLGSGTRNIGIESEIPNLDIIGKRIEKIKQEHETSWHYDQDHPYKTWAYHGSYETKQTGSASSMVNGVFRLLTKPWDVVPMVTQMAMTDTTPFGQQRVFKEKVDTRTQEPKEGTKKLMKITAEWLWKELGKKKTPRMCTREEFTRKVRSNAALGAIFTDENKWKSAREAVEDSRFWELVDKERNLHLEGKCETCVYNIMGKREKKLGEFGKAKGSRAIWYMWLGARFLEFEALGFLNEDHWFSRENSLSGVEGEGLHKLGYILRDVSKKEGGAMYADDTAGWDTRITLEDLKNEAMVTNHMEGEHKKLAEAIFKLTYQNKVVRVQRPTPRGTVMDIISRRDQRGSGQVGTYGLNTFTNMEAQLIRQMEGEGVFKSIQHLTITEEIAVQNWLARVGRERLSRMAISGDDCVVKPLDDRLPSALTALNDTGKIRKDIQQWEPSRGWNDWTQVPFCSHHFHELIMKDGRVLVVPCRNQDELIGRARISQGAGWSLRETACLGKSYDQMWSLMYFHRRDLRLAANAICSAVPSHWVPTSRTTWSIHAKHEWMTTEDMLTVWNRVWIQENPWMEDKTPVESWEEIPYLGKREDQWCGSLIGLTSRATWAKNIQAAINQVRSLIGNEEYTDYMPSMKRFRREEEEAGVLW
In test [10] the target is T7, Induced myeloid leukemia cell differentiation protein Mcl-1 (Homo sapiens, UniProt Q07820). Description: MCL1-BIM BH3 interaction inhibitors, dose response, biochemical, fluorescence polarization, BIM-BH3 peptide, 1536-well (AID 2217).
T7 sequence (Q07820 whole entry): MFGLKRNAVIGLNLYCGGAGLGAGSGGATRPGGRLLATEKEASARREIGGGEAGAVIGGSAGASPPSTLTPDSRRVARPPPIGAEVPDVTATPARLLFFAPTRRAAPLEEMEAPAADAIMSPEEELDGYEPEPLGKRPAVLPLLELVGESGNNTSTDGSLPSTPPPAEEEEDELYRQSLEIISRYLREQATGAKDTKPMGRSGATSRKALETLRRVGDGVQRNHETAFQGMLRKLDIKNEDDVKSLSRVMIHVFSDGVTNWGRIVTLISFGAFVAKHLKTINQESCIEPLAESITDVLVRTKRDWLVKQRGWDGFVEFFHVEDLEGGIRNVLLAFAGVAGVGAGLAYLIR
For test [11], the target named is T8, Alkaline phosphatase, tissue-nonspecific isozyme (Homo sapiens, UniProt P05186).
T8 sequence (P05186 whole entry): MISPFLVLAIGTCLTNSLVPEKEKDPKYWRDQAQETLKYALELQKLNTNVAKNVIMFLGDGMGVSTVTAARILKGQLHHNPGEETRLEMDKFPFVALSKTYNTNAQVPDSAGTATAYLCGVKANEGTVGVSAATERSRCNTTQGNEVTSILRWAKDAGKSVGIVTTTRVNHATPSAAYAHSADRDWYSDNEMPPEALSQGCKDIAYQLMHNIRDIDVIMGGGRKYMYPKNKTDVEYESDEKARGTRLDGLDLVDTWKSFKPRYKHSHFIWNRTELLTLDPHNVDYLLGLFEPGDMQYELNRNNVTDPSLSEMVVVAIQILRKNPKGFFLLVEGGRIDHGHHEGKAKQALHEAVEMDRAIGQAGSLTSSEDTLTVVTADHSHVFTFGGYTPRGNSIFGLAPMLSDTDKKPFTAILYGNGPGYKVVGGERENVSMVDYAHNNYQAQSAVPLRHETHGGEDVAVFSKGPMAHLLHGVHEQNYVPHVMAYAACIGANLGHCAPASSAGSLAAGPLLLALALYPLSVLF
Description: TNAP enzyme inhibition by screening hits, dose response, selectivity assay for mouse IAP inhibitor project, biochemical, human TNAP, uHTS hits (AID 488906). Format: functional.

Test [12] in a line: cells. Format: functional, cell-based.
In a further test the target is Bcl-2-like protein 1 (Homo sapiens, UniProt Q07817). Description: BCL-XL inhibitors, dose response, selectivity assay for MCL1 inhibitor project, biochemical, fluorescence polarization, 1536-well (AID 2218).
Sequence of Bcl-2-like protein 1 (Q07817 whole entry, the tested form may be a part): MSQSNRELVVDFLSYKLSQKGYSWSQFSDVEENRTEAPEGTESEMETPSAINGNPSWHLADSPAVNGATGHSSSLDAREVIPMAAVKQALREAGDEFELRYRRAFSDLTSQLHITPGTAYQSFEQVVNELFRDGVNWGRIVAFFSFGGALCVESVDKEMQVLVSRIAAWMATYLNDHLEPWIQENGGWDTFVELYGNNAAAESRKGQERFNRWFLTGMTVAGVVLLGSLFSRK
Test [13] has as its target T9, Carboxy-terminal domain RNA polymerase II polypeptide A small phosphatase 1 (Homo sapiens, UniProt Q9GZU7).
T9 sequence (Q9GZU7 whole entry): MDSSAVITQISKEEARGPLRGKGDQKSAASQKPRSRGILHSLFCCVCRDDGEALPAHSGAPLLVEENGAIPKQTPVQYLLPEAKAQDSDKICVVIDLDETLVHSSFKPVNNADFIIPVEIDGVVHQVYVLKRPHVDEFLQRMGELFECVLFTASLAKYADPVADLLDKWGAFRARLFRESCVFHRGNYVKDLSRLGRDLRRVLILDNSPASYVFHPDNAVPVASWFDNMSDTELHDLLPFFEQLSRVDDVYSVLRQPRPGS
Description: inhibitors of CTDSP1, concentration-response testing, biochemical assay, absorbance-based, actives from ultra-high-throughput screening (AID 540297). Format: functional.

Test [14] in a line: cells. Format: functional, cell-based. The source holds these as a separate data set.
The target in test [15] is Intestinal-type alkaline phosphatase (Homo sapiens, UniProt P09923). Description: activation of human intestinal alkaline phosphatase – biochemical, dose response (AID 488873). Format: functional.
Sequence of Intestinal-type alkaline phosphatase (Homo sapiens, UniProt P09923) (P09923 whole entry): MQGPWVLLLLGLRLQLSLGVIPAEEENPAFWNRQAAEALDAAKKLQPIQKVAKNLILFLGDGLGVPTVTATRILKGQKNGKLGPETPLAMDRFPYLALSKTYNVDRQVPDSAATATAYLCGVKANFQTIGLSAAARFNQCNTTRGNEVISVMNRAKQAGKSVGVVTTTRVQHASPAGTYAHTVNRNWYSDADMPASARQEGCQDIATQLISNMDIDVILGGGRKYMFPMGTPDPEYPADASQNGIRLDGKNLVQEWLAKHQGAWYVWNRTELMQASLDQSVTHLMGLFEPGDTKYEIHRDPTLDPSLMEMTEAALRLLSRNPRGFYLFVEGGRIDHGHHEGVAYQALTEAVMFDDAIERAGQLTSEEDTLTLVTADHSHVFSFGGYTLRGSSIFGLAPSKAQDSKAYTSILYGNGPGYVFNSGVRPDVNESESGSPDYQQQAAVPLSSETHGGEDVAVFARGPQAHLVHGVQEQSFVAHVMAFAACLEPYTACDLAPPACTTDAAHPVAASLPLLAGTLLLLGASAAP
The target of test [16] is Intestinal-type alkaline phosphatase (Mus musculus, UniProt P24822). Description: PubChem AID 488785. Format: functional.
Sequence of Intestinal-type alkaline phosphatase (Mus musculus, UniProt P24822) (P24822 whole entry): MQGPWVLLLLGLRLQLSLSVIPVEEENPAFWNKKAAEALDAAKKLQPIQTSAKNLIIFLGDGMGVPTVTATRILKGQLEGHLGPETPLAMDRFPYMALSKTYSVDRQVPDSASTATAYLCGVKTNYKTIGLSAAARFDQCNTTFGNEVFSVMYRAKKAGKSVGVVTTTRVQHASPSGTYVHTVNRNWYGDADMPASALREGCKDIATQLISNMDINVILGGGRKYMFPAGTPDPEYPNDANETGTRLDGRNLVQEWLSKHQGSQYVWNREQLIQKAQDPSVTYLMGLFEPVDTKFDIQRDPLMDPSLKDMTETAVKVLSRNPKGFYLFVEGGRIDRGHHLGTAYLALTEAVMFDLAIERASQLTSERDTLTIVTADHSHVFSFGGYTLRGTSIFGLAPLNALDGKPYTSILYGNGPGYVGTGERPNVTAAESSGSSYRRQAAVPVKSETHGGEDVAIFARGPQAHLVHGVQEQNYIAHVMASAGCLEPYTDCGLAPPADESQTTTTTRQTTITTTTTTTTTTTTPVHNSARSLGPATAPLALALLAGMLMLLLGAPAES
Test [17] concerns the target T7, Induced myeloid leukemia cell differentiation protein Mcl-1. Format: functional.

T2 sequence (P61956 whole entry): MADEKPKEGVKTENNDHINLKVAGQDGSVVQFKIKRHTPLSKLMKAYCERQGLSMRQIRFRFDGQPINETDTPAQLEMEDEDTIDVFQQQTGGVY

The term EC50 denotes the concentration needed to bring the measured effect to its halfway point. Turning to `CSc1nc(SCC(=O)O)c2sc3nc(-c4ccccc4)c4c(c3c2n1)CCC4`, the IC50 was 3.74 µM (not active) in [1]; 5.26 µM (active) in test [2]; 5.16 µM (active) in test [3]; 3.72 µM (active) in [5]; 5.38 µM (active) in test [6]; 5.06 µM (active) in test [7]. Further, the IC50 was 96.5 µM (active) in test [8], 2.06 µM (active) in [9] and 48.9 µM (active) on Genome polyprotein. In addition, the results for the EC50 (in test [4]; in the test with Streptococcus; at Streptokinase A) were 1.41 µM (active), 6.54 µM (active) and 7.33 µM (active), respectively.
As for `O=[N+]([O-])c1cc(S(=O)(=O)c2ccc(O)c([N+](=O)[O-])c2)ccc1O`, the IC50 in test [10] was 12.5 µM (not active); in test [11] it was > 100 µM (inactive); on Bcl-2-like protein 1 it was > 109 µM (not active); in [13] it was 3.31 µM (active); in test [16], 5.39 µM (active); in [17], 2.82 µM (active). Besides, the EC50 in “cells [12]” was > 350 µM (not active); in the test “cells [14]” it was > 350 µM (not active); in [15] it was > 100 µM (inactive).
